# Entries after “also recorded” stand apart in the source; their conditions may differ.
# Experiments:
# HL-60 cells [1] = experiment: Flow cytometric analysis of intracellular H2O2 (DCFH-DA); type: cell-based, human
# Description: Cells were then loaded with DCFH-DA (5 μM) for 15 minutes and the amount of intracellular H2O2 generated was indicated by the shift in fluorescence as detected by flow cytometry.
# Intracellular H2O2 was determined by staining with 2,7-dichloro-fluorescein diacetate (Molecular Probes, Eugene, Oreg.), which is oxidised to dichlorofluorescein by H2O2 described elsewhere (Hirpara, J. L., et al., J Biol. Chem. (2001) 276, 514-521). In brief, HL-60 cells were exposed to […] [Os3(CO)10(μ-H)(μ-S)C9H6N] 4 h, loaded with […] 2′,7′-dichlorofluorescein diacetate at 37° C. for […], and analysed by flow cytometry (Coulter Epics Elite ESP; excitation 488 nm). Catalase (1000 units/ml) was used to scavenge intracellular H2O2 before addition of the drugs and flow cytometric analysis of H2O2 for 4 h, followed by flow cytometry for H2O2. At least 10,000 events were analysed.
# Akt/PKB = experiment: Western blot of total Akt/PKB and Akt/PKB phosphorylation (Ser473); type: cell-based, human
# Description: The capability of the varying doses of [Os3(CO)10(μ-H)(μ-S)C9H6N] to dephosphorylate and deactivate Akt was shown by Western blot. HL 60 cells (2×10^6) were incubated with varying doses of [Os3(CO)10(μ-H)(μ-S)C9H6N] (12.5 and 25 μM) for 2, 4, and 6 hours and cell lysates were obtained for Western blot analysis of the Akt phosphorylation status.
# HL-60 cells (2×10^6) were plated in a 12 well plate followed by exposure to the drug. Cells were harvested, washed once with PBS, and then lysed with cell lysis buffer [150 mmol/L NaCl, Tris-HCl (pH 7.4), 1% NP40]. Cell lysate (200 μg) was then electrophoresed on an 8% acrylamide gel. Antibodies were used to probe for total Akt and phosphorylated Akt/PKB at the Ser473 position (Cell Signaling, Beverly, Mass.). Protein blots were probed with anti β-actin (Sigma-Aldrich, St. Louis, Mo.) to check for equal protein loading).
# Bax = experiment: Western blot of Bax sub-cellular localization; type: cell-based, human; conditions: HL60 cells, 12.5 and 25 μM, 12 hours
# Description: (§1) FIG. 12 illustrates that [Os3(CO)10(μ-H)(2-S)C9H6N] induces apoptosis through the mitochondrial pathway. HL60 cells (30×10^6) were treated with 12.5 (A) and 25 μM (B) of [Os3(CO)10(μ-H)(μ-S)C9H6N] treated for 12 hours and cytosolic and mitochondria fractions were subjected to SDS-PAGE electrophoresis, transferred to PVDF membrane, and probe with anti-Cyt.C and anti-Bax antibodies (C). Anti-βactin antibody was used to assess equal loading of samples.
# For analysis of poly(ADP-ribose) polymerase cleavage, lysates from 2×10^6 cells were prepared in sample buffer [50 mmol/L Tris/HCl (pH 6.8), 6 mol/L urea, 3% SDS, 0.003% Bromphenol Blue, and 6% β-mercaptoethanol] and subjected to Western blot analysis using anti-poly(ADP-ribose) polymerase (clone C-2-10, PharMingen) as described (Pervaiz et al., 199, supra). For Western blot analysis of Bax, cells (2×10^6) were lysed by adding […] of chilled 1× radioimmunoprecipitation assay buffer lysis buffer, and 50 μg of protein were subjected to 15% PAGE and transferred to polyvinylidene difluoride as above. Alternatively for analysis of Bax dimerization/multimerization, cell lysates were subjected to 10% native gel electrophoresis. […] Chemiluminescence was detected as described above.
# jurkat cells = experiment: Intracellular superoxide, lucigenin chemiluminescence, Jurkat; type: cell-based; conditions: 12.5 and 25 μM, 2 h and 4 h (FIG. 5A)
# Description: (§2) (A) Jurkat cells and (B) HL-60 cells (2×10^6) were incubated with 12.5 and 25 μM [Os3(CO)10(μ-H)(μ-S)C9H6N] and […] O2^− was measured by a lucigenine-based chemiluminescence assay (C) A, cytosolic pH was determined with the pH-sensitive probe 2′,7′-bis(2-carboxyethyl)-5,6-carboxy-fluorescein.
# (§3) A lucigenin-based chemiluminescence assay is routinely used in the laboratory as detailed in Clement and Pervaiz (Pervaiz S, Clement M V, Methods Enzymol. (2002) 352, 150-159). In brief, chemiluminescence was monitored using a Berthold Sirius Luminometer (Berthold Detection Systems GmbH, Bleichstralβe/Pforzheim, Germany). Data are described as relative light units/mg of protein (RLU/mg protein). Protein concentration was determined using the Coomassie Plus protein assay reagent from Pierce (Pierce Chemical Company, Rockford, Ill., USA) as detailed by the manufacturer.
# (§4) This example illustrates determining whether and to what extent apoptosis induced by an osmium triangulo compound of the present invention is accompanied by an increase in intracellular ROS production. Cells were exposed to [Os3(CO)10(μ-H)(μ-S)C9H6N] for 2 h and 4 h and intracellular O2^− production was measured by a lucigenin-based chemiluminescence assay.
# cytochrome C = experiment: Western blotting for cytochrome C release; type: cell-based, human; conditions: HL60 cells, 12.5 and 25 μM, 12 hours
# Description: as §1
# Cytochrome c release was assessed by Western blot analysis of cytosolic extracts from 30×10^6 cells as described previously (Hirpara, J. L. et al., J. Biol. Chem. (2001) 276, 514-521, incorporated herein by reference in its entirety; Pervaiz et al., 1999, supra). Cytosolic fractions were obtained and analysed by Western blotting.
# Briefly, cells were washed twice with ice-cold PBS, pH 7.4, followed by centrifugation at 200×g for 5 minutes. The cell pellet was then resuspended in 600 μL of extraction buffer, containing 200 mmol/L mannitol, 68 mmol/L sucrose, 50 mmol/L PIPES-KOH, pH 7.4, 50 mmol/L KCl, 5 mmol/L EGTA, 2 mmol/L MgCl2, 1 mmol/L DTT, and protease inhibitors (Complete Cocktail; Boehringer Mannheim, Mannheim, Germany). […] Signal was detected by the Super Signal Substrate Western Blotting kit (Pierce).
# caspases 2, 8, 9, and 3 [2] = experiment: Caspase activities (AFC substrates), Jurkat; type: cell-based; conditions: Jurkat cells, within 6 hours
# Description: (§5) Activities of caspases 8, 2, 9, and 3 were determined in lysates of [Os3(CO)10(μ-H)(μ-S)C9H6N]-treated (A) Jurkat and (B) HL 60 cells and shown as fold increase over untreated cells.
# (§6) Caspases 2, 3, 8, and 9 activities were assayed by using AFC-conjugated substrates supplied by Bio-Rad. Cells (1×10^6 cells/ml) were incubated with the drugs over a time course, washed twice with 1×PBS, resuspended in 50 μl of chilled cell lysis buffer (provided by the supplier), and incubated on ice for 10 min. 50 μl of 2× reaction buffer (10 mM HEPES, 2 mM EDTA, 10 mM KCl, 1.5 mM MgCl2, 10 mM dithiothreitol) and […] of the fluorogenic caspase-specific (VDVAD-AFC for caspase 2, DEVD-AFC for caspase 3, IETD-AFC for caspase 8, and LEHDAFC for caspase 9) were added to each sample and incubated at 37° C. for 1 h. Protease activity was determined by the relative fluorescence intensity at 505 nm following excitation at 400 nm using a spectrofluorimeter (Luminescence Spectrometer LS50B, PerkinElmer Life Sciences, Buckinghamshire, United Kingdom).
# cells = experiment: Intracellular pH with BCECF; type: cell-based; conditions: FIG. 5C
# Description: as §2
# Intracellular (pHi) was measured by loading cells with […] dye BCECF (Sigma). Briefly, cells (1×10^6) before or after exposure (2-12 h at 37° C.) to [Os3(CO)10(μ-H)(μ-S)C9H6N] was washed once with HBSS, resuspended in 0.1 ml of HBSS, and loaded with […] of 1 mM BCECF at 37° C. for 30 min in the dark. Cells were then resuspended in 0.5 ml of HBSS and analyzed using a Coulter Epics Elite ESP (Coulter, Hialeah, Fla.) flow cytometer with the excitation set at 488 nm. A minimum of 10,000 events was analyzed, and the ratio of BCECF fluorescence at 525 and 610 was used to obtain intracellular pH from a pH calibration curve. […] Immediately before flow cytometry, cells were loaded with […] nigericin (1 mM stock in absolute alcohol; Sigma), and fluorescence ratio measurements (525 nm/610 nm) of cells in nigericin-containing buffers of a range of pH were then used to relate histogram channel numbers to ipH. […]
# [3] = test system: Jurkat Neo and Jurkat BCL2 cells; experiment: DNA fragmentation by PI, Jurkat Neo and Jurkat BCL2; type: cell-based; conditions: 12.5 and 25 μM, 18 hours; for DNA fragmentation / apoptosis with Bcl-2 overexpression: BCl2 overexpressing jurkat cells
# Description: Jurkat Neo and Jurkat BCL2 cells were treated with 12.5 and 25 μM of [Os3(CO)10(μ-H)(μ-S)C9H6N] for 18 hours, immediately fixed in ethanol and stained with PI for DNA content analysis. Sub-G1 population indicates subdiploid DNA content indicative of apoptotic. The DNA fragmentation induced by [Os3(CO)10(μ-H)(μ-S)C9H6N] is inhibited in BCl2 overexpressing jurkat cells. Data shown are representative of at least three independent experiments.
# For cellular DNA content determination, 1×10^6 cells/ml from each cell line were treated with [Os3(CO)10(μ-H)(μ-S)C9H6N]. After treatment, cells were washed twice with 1×PBS+1 FBS. Sample preparation and staining with PI for DNA content were performed as described elsewhere (32). Briefly, cell pellets were resuspended in 0.5 ml of 1×PBS+1% FBS and immediately fixed by adding 5 ml of 70% ethanol while vortexing to avoid clumping.
# Fixed cells were left at 4° C. for 30 min, centrifuged at 1000×g for 5 min and washed once with 1×PBS+1% FBS. Cell pellets were then suspended in 0.5 ml of PI/RNAse. A solution prepared by adding 1/50 volume of PI stock and 1/40 volume of RNAse. A stock to 1×PBS+1% FBS and incubated for 30 min at 37° C. Stained cells were analyzed by flow cytometry with the excitation set at 488 nm and the emission set at 610 nm (red).
# HL-60 cells [4] = experiment: Intracellular superoxide, lucigenin chemiluminescence, HL-60; type: cell-based, human; conditions: 12.5 and 25 μM, 2 h and 4 h (FIG. 5B)
# Description: as §2, §3, §4
# caspases 2, 8, 9, and 3 [5] = experiment: Caspase activities (AFC substrates), HL60; type: cell-based, human; conditions: HL60 cells, within 6 hours; more pronounced than in Jurkat
# Description: as §5, §6
# HL-60 cells [6] = experiment: DNA fragmentation by propidium iodide flow cytometry, HL-60; type: cell-based, human; conditions: HL-60, 12.5 and 25 μM, 24 hours
# Description: FIG. 4 depicts the detection of DNA Fragmentation. DNA cleavage in [Os3(CO)10(μ-H)(μ-S)C9H6N]-treated tumour cells was assessed using flow cytometric analysis. HL-60 cells were treated with 12.5 and 25 μM [Os3(CO)10(pt-H)(μ-S)C9H6N] for 24 hours, immediately fixed in ethanol, and stained with PI for DNA content analysis. SubG1 population indicates subdiplod DNA content indicative of apoptotic DNA fragmentation. Data shown are representative of at least three independent experiments.
# For cellular DNA content determination, 1×10^6 cells/ml from each cell line were treated with [Os3(CO)10(μ-H)(μ-S)C9H6N]. After treatment, cells were washed twice with 1×PBS+1 FBS. Sample preparation and staining with PI for DNA content were performed as described elsewhere (32). […]
# Fixed cells were left at 4° C. for 30 min, centrifuged at 1000×g for 5 min and washed once with 1×PBS+1% FBS. […] Stained cells were analyzed by flow cytometry with the excitation set at 488 nm and the emission set at 610 nm (red).
# The ability of the cells to scatter light in a forward direction (FS) correlates with cell volume. Os drug-treated cells were analysed for changes in the intensity of FS as compared to untreated control cells. A total of 10,000 cells per sample were studied and data were analyzed by the WINMDI software.
# death receptor CD95 = experiment: Surface expression of CD95 by flow cytometry; type: cell-based, human; set-up: dose or concentration left out as unconfirmed; conditions: HL60 cells, 12 hours
# Description: FIG. 8 depicts the upregulation of Cd95 by [Os3(CO)10(μ-H)(μ-S)C9H6N] in tumour cells. HL60 cells were treated with […] [Os3(CO)10(μ-H)(μ-S)C9H6N] for 12 hours and surface expression of CD95 was analysed by flow cytometry as described in Materials and Methods. The shaded histograms show unstained cells. Mouse IgG1k was used as an isotype control. At least 10,000 events were counted, and data shown are representative of at least three separate experiments.
substance,measurement,setting,value
[Os3(CO)10(μ-H)(μ-S)C9H6N],intracellular H2O2,"HL-60 cells [1]; HL-60, 12.5 and 25 μM, within 4 hours",significant surge
same,intracellular H2O2 in presence of catalase,"HL-60 cells [1]; HL-60, catalase 1000 U/ml",completely blocked
same,total Akt signal,"Akt/PKB; HL-60, 12.5 and 25 μM, 2, 4 and 6 hours",remained almost unchanged
same,Akt phosphorylation,"Akt/PKB; HL-60, 12.5 and 25 μM, within 4 to 6 hours of exposure",down regulation; also recorded: strong inhibition
same,sub-cellular localization of Bax,Bax,no significant change
same,intracellular O2− production,jurkat cells,early increase
same,cytochrome C release,cytochrome C,occurred in a dose dependent manner
same,"activation of caspases 2, 8, 9 and 3","caspases 2, 8, 9, and 3 [2]",induces caspase activation
same,cytosolic pH,cells,significant drop
same,DNA fragmentation / apoptosis with Bcl-2 overexpression,[3],inhibited
same,DNA fragmentation / apoptosis with Bcl-2 overexpression,[3]; listed as [Os3(CO)10(μ-H)(μ-S)C9H9N],blocked
same,DNA fragmentation (sub-G1),[3]; Jurkat Neo,induces DNA fragmentation
same,intracellular O2− production,HL-60 cells [4],early increase
same,"activation of caspases 2, 8, 9 and 3","caspases 2, 8, 9, and 3 [5]",induces caspase activation
same,percentage of sub-diploid DNA (sub-G1 fraction),HL-60 cells [6],increased significantly
same,surface expression of CD95,death receptor CD95,upregulation; also recorded: significant increase
